Literature values in patent US20060079522A1, “Amino substituted aryloxybenzylpiperidine derivatives” (priority 2004, published 2006).
Where two headings read alike, the source gives them in different places.

Experiments:
MCH1 receptor [1] = target: T1, MCH1 receptor (Rattus norvegicus, UniProt P97639); conditions: rat forced-swim
T1 construct: SNAP-7941, a selective MCH1 small molecule antagonist, was evaluated in several animal models; host or cells: living rats (endogenous receptor)

MCH1 receptor [2] = conditions: guinea pig maternal-separation vocalization
MCH1 receptor [3] = target: T1, MCH1 receptor; conditions: rat social interaction

T1 sequence (P97639 whole entry): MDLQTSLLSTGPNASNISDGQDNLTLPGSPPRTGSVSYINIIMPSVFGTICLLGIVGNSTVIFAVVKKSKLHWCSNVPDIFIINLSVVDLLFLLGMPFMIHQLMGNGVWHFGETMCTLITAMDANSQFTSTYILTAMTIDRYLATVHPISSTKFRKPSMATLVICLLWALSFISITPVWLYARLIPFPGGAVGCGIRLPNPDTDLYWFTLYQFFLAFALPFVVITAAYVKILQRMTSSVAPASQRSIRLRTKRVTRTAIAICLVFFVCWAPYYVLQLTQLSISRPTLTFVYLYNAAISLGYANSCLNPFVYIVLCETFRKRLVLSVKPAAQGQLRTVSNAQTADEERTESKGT

Structure (SMILES): COCC1=C(C(=O)OC)[C@H](c2ccc(F)c(F)c2)N(C(=O)NCCCN2CCC(c3cccc(NC(C)=O)c3)CC2)C(=O)N1 [SNAP-7941]
- profile in behavioral model of depression and/or anxiety (MCH1 receptor [1]): profile similar to clinically used anti-depressants and anxiolytics
- profile in behavioral model of depression and/or anxiety (MCH1 receptor [2]): profile similar to clinically used anti-depressants and anxiolytics
- profile in behavioral model of depression and/or anxiety (MCH1 receptor [3]): profile similar to clinically used anti-depressants and anxiolytics
